Marks after values point to notes of the source that are not given here.
Experiments:
Format in all cases: in vivo, human
[1] = 1-year open-label extension (OLE) study: weight change
Description: A 1-year open-label extension (OLE) study was performed with 374 participants to examined whether clinically significant weight loss (≥5%) in this population had favorable effects on biomarkers of cardiovascular risk compared to no such weight loss. The study measured changes in weight and BP (parent study baseline to OLE week 40) and clinical laboratory assessments (OLE baseline to week 40) in participants with narcolepsy (n=124) or OSA (n=250) who received solriamfetol at doses of 75, 150, or 300 mg/d.
Increased prevalence of obesity has been reported in patients with narcolepsy and obstructive sleep apnea (OSA). […] We examined whether clinically significant weight loss (≥5%) in this population had favorable effects on biomarkers of cardiovascular risk compared to no such weight loss.
We evaluated changes in weight and BP (parent study baseline to OLE week 40) and clinical laboratory assessments (OLE baseline to week 40) in participants with narcolepsy (n=124) or OSA (n=250) from the OLE study.

[2] = system: adults with EDS associated with OSA; experiment: Long-term OLE trial in OSA: vital signs, antihypertensive medication use, AEs of hypertension/increased BP
Description: An exploratory analysis of data from one 12-week randomized, controlled trial (Schweitzer P K, et al. Am J Respir Crit Care Med. 2019; 199(11):1421-31) and 1 long-term open-label extension (OLE) trial in adults with EDS (Epworth Sleepiness Scale score ≥10) associated with OSA (Malhotra A, et al. Sleep. 2020; 43(2):zsz220) was carried out. Participants with current/prior use of primary OSA therapy (positive airway pressure [PAP], oral pressure therapy, oral appliance, or upper airway stimulation) were eligible, regardless of the level of adherence to primary OSA therapy; participants who had not attempted to use primary OSA therapy were excluded. Adherence to primary OSA therapy was defined as PAP use ≥4 hours/night on ≥70% of nights/week, historical report (with investigator concurrence) of oral appliance use on ≥70% of nights, or effective surgical intervention. Nonadherence to primary OSA therapy was defined as device use at a level lower than specific above, no device use at all, or surgical intervention deemed no longer effective. Participants received placebo or solriamfetol 37.5 (12-week trial only), 75, 150, or 300 mg/day for 12 weeks (12-week trial) or ≤40 weeks (OLE trial). Vital signs, antihypertensive medication use, and adverse events (AEs) were monitored throughout the studies. Baseline demographics, CV comorbidities, and concomitant medications, the percentage of participants who initiated antihypertensive medication use during treatment, and the incidence of and discontinuations due to AEs of hypertension/increased BP were summarized for the safety population (participants who received ≥1 dose of study medication).

[3] = system: participants with narcolepsy; experiment: Study 14-002, 12-week randomized controlled trial: 24-hour ABPM at screening and week 8; settings: for effect on percentage of participants with a non-dipping BP profile: screening to week 8, any dose studied
Description: Solriamfetol is a dopamine and norepinephrine reuptake inhibitor indicated to improve wakefulness in adult patients with excessive daytime sleepiness associated with narcolepsy (75-150 mg/d) or obstructive sleep apnea (37.5-150 mg/d). Previous studies reported small mean increases in blood pressure (BP); however, the time course of these effects has not been evaluated. […] These analyses evaluated the effects of solriamfetol treatment on BP using 24-hour ambulatory blood pressure monitoring (ABPM) and on the percentage of narcolepsy patients with a non-dipping BP profile.
Twenty-four-hour ABPM was conducted at baseline and week 8 in a 12-week randomized controlled trial in participants with narcolepsy (n=236). Blood pressure was collected every 30 minutes.

NC(=O)OC[C@H](N)Cc1ccccc1 [Solriamfetol, (R)-2-amino-3-phenylpropyl carbamate]
participants with ≥5% weight loss ([1]; 1-year OLE, narcolepsy or OSA, 75 mg/d): 4.5%
participants with ≥5% weight loss ([1]; 1-year OLE, narcolepsy or OSA, 150 mg/d): 17.3%
participants with ≥5% weight loss ([1]; 1-year OLE, narcolepsy or OSA, 300 mg/d): 32.4%
participants with ≥5% weight gain ([1]; of 374 participants, all doses, 34 participants, week 40): 9.1 % of total population
participants with ≥5% weight loss ([1]; of 374 participants, all doses, 96 participants, week 40): 25.7%
change in DBP from baseline to week 40 ([2]; OLE): 0.29 mm Hg
change in HR from baseline to week 40 ([2]; OLE): −1.94 bpm
change in SBP from baseline to week 40 ([2]; OLE): −0.49 mm Hg
total participants with AEs of hypertension/increased BP ([2]; OLE): 22 participants
serious AE of cerebrovascular accident ([2]; OLE trial): 1
Discontinuation due to AE of HTN/increased BP ([2]; OLE, 75 mg): 1 (0.2)^d n (%)
Initiated anti-HTN ([2]; OLE, 75 mg): 3 (6.1) n (%)
AE of HTN/increased BP ([2]; OLE, 75 mg, % of participants that ever received the dose level (n = 417)): 4 (1.0) n (%)
Discontinuation due to AE of HTN/increased BP, (%) ([2]; OLE, 150 mg): (0.2)^d %
Initiated anti-HTN ([2]; OLE, 150 mg): 2 (1.4) n (%)
AE of HTN/increased BP, (%) ([2]; OLE, 150 mg, % of participants that ever received the dose level (n = 402)): (1.5) %
Discontinuation due to AE of HTN/increased BP, (%) ([2]; OLE, 300 mg): (0.3)^e %
Initiated anti-HTN ([2]; OLE, 300 mg): 3 (1.3) n (%)
AE of HTN/increased BP, (%) ([2]; OLE, 300 mg, % of participants that ever received the dose level (n = 326)): (3.7) %
Mean Change in DBP on ABPM from Screening to Week 8, Mean (SD) ([3]; 75 mg): 1.4 (5.13) mmHg
Mean Change in HR on ABPM from Screening to Week 8, Mean (SD) ([3]; 75 mg): 1.0 (7.95) bpm
Mean Change in SBP on ABPM from Screening to Week 8, Mean (SD) ([3]; 75 mg): 1.8 (6.53) mmHg
Mean Change in DBP on ABPM from Screening to Week 8, Mean (SD) ([3]; 75 mg, listed as solriamfetol): 1.4 mmHg
Mean Change in SBP on ABPM from Screening to Week 8, Mean (SD) ([3]; 75 mg, listed as solriamfetol): 1.8 mmHg
Mean Change in DBP on ABPM from Screening to Week 8, Mean (SD) ([3]; 150 mg): 0.4 (4.46) mmHg
Mean Change in HR on ABPM from Screening to Week 8, Mean (SD) ([3]; 150 mg): 0.7 (7.12) bpm
Mean Change in SBP on ABPM from Screening to Week 8, Mean (SD) ([3]; 150 mg): −0.5 (5.51) mmHg
Mean Change in DBP on ABPM from Screening to Week 8, Mean (SD) ([3]; 150 mg, listed as solriamfetol): 0.4 mmHg
Mean Change in SBP on ABPM from Screening to Week 8, Mean (SD) ([3]; 150 mg, listed as solriamfetol): −0.5 mmHg
Mean Change in DBP on ABPM from Screening to Week 8, Mean (SD) ([3]; 300 mg): 3.0 (4.97) mmHg
Mean Change in HR on ABPM from Screening to Week 8, Mean (SD) ([3]; 300 mg): 5.3 (7.55) bpm
Mean Change in SBP on ABPM from Screening to Week 8, Mean (SD) ([3]; 300 mg): 2.4 (5.97) mmHg
Mean Change in DBP on ABPM from Screening to Week 8, Mean (SD) ([3]; 300 mg, listed as solriamfetol): 3.0 mmHg
Mean Change in SBP on ABPM from Screening to Week 8, Mean (SD) ([3]; 300 mg, listed as solriamfetol): 2.4 mmHg
percentage of non-dippers (<10% decrease in MAP during sleep) ([3]; combined solriamfetol, week 8 (baseline 48%)): 39%
time course of effects on BP (24-hour ABPM) ([3]; highest approved dose of 150 mg/d): transient across the day
effect on percentage of participants with a non-dipping BP profile [3]: not observed to have an increase
effect on percentage of participants with a non-dipping BP profile ([3]; listed as solriamfetol): did not increase
